Legend:
[1] = system: Human THP1 cells; assay: ELISA analysis of IL-10 and TNF expression in media from LPS-stimulated THP1 cells (cytokine release platform); type: cell-based; conditions: FIG. 11A-F, compounds at 1 mM, 100 μM and 10 μM for 2 hrs, vs DMSO vehicle
Protocol: FIG. 10: ELISA analysis of IL-10 and TNF expression in media from cells pretreated with DMSO (vehicle) or (A/B) piperonyl acetate and (C/D) piperonyl isobutyrate for 2 hrs and stimulated with LPS for 24 hrs. Human THP1 cells treated with compounds at (1 mM, 100 μM and 10 μM) and LPS […]. All data are presented as the mean±SEM of three or four independent experiments and were subjected to paired Student's t test.
FIG. 11: ELISA analysis of IL-10 and TNF expression in media from cells pretreated with DMSO (vehicle) or (A/B) vanillin, (C/D) ethyl vanillin and (E/F) divanillin for 2 hrs and stimulated with LPS for 24 hrs. Human THP1 cells treated with compounds at (1 mM, 100 μM and 10 μM) and LPS […]. (G) DH82 cells were treated with veratric acid (1 mM, 500 uM, 250 uM, 125 uM, 60 uM, 30 uM) for 2 hrs and stimulated with LPS for 24 hrs. All data are presented as the mean±SEM of three or four independent experiments and were subjected to paired Student's t test.
THP-1 cells were cultured in RPMI supplemented with 10% (v/v) heat inactivated FBS, penicillin G (100 μg/ml) and streptomycin (100 μg/ml) in a 37° C. humidified chamber under a 5% CO2 atmosphere. Cell morphology and confluence, including media acidification colour change were monitored daily. Twice a week, cells were passaged by removal from flask and centrifugation at 400 G. Cells were cultured for a maximum of 25 passages in order to avoid excessive genetic drift. Cells were seeded at 1×10^6/ml.
Cell supernatant or serum samples were collected and stored at −80° C. prior to analysis. 96-well NUNC “Maxisorb” plates were coated with 100 μl capture antibody diluted to a working concentration in PBS. […] The optical density (OD) value of each well was measured at 450 nm with a correction at 590 nm. A ELx800™ microplate reader with Gen5 Data Analysis Software was used to carry out the reading. The sample concentrations were determined by interpolating the sample absorbance from the known concentrations of the standard curve. Standards were assayed in duplicate while samples were analysed in triplicate. […]

[2] = system: COL2A1; assay: In vitro arthritis model: DH82 supernatant transferred to canine chondrocytes, COL2A1 mRNA by RT-PCR; type: cell-based; conditions: FIG. 14(A); DH82 macrophage cells treated with 500 μM for 2 hrs and LPS (100 μg/ml) 3 hours; media transferred to canine chondrocytes (CNC) 24 hours; compared to LPS alone
Protocol: FIG. 13: (1) DH82 cells are plated and stimulated with the compound, followed by LPS. (2) After 24 hours, TNF has been produced by the cells and (3) This liquid supernatant is removed from the cells and reserved. (4) Chondrocytes are plated and (5) the reserved liquid supernatant containing TNF and other inflammatory cytokines from the DH82 cells is added on top of these cells, thus exposing the cartilage cells to an inflammatory environment, simulating an inflammatory joint. (6) After 24 hours gene expression of COL2A1 is measured.
FIG. 14: (A) DH82 cells were stimulated with DMSO (vehicle) or veratraldehyde (500 μM) for 2 hrs and stimulated with LPS (100 μg/ml) for 3 hours. […] COL2A1 mRNA expression was measured by RT-PCR. (B) Quantitative RT-PCR of mRNA expression of COL2A1 in Canine chondrocytes (CNC) pretreated with DMSO (vehicle), Methyl Isoeugenol, NaOH, Vertic Acid, Folic Acid, Piperonyl Alcohol, Veratraldehyde (500 μM) for 24 hrs. […]
Canine chondrocyte (CNC) cells were cultured in complete CNC media in a 37° C. humidified chamber under a 5% CO2 atmosphere. Cell morphology and confluence were monitored daily. […]
Enriched inflammatory cell supernatant from DH82 cells was prepared by first stimulating seeded DH82 cells with compound, followed by stimulation with LPS for 3 hours. […] After 24 hours, mRNA was harvested from CNC as described above and levels of COL2A1 were assessed. […]

[3] = system: DH82 cells; assay: ELISA of media from LPS-stimulated DH82 cells; type: cell-based, canine; conditions: FIG. 11G, 1 mM, 500 uM, 250 uM, 125 uM, 60 uM, 30 uM for 2 hrs, then LPS for 24 hrs
Protocol: FIG. 3: ELISA analysis of TNF expression in media from cells pretreated with DMSO (vehicle) or Veratraldehyde for 2 hrs and stimulated with LPS for 24 hrs. (A) human THP1 cells treated with Veratraldehyde (200 μM, 100 μM and 50 μM) and LPS (1 mg/ml). (B) human peripheral blood mononuclear cell (PBMC) treated with Veratraldehyde (100 μM) and LPS (100 μg/ml). (C) murine bone-marrow-derived macrophages (BMDMs) isolated from C57BL/6 WT mice treated with Veratraldehyde (100 μM) and LPS (100 μg/ml). (D) Quantitative RT-PCR of mRNA expression of Tnf in PBMCs pretreated with DMSO (vehicle) or veratraldehyde (100 μM) for 2 hrs and stimulated with LPS (100 μg/ml) for 3 hrs. (E and G) TNF was measured from canine macrophage-like cells (DH82) treated with veratraldehyde (1 mM, 500 uM, 200 uM, 100 uM, 50 uM, 10 uM) and LPS for 24 hours by ELISA. (F) Quantitative RT-PCR of mRNA expression of Tnf in DH82 cells pretreated with DMSO (vehicle) or veratraldehyde (500 μM) for 2 hrs and stimulated with LPS (100 μg/ml) for 1.5 and 3 hrs. […] COL2A1 mRNA expression was measured by RT-PCR. […]
DH82 cells were cultured in EMEM supplemented with 10% (v/v) heat inactivated FBS, penicillin G (100 μg/ml) and streptomycin (100 μg/ml) in a 37° C. humidified chamber under a 5% CO2 atmosphere. Cell morphology and confluence were monitored daily. […]

**Q.** For `COc1cc(C=O)cc(-c2cc(C=O)cc(OC)c2O)c1O` [divanillin], which “anti-inflammatory effect (ELISA analysis of IL-10 and TNF expression in media)” value [1] is on record?
**A.** does not show an anti-inflammatory effect

**Q.** How did the “anti-inflammatory effect (ELISA analysis of IL-10 and TNF expression in media)” value [1] turn out when `CCOc1cc(C=O)ccc1O` [ethyl vanillin] was run?
**A.** does not show an anti-inflammatory effect

**Q.** Which “anti-inflammatory effect (ELISA analysis of IL-10 and TNF expression in media)” value [1] does the source give for `COc1cc(C=O)ccc1O` [vanillin] here?
**A.** does not show an anti-inflammatory effect

**Q.** How did the “levels of COL2A1 (mRNA expression) in chondrocyte cells” value [2] turn out when `COc1ccc(C=O)cc1OC` [veratraldehyde, 3,4-dimethoxybenzaldehyde] was run?
**A.** significant restoration

**Q.** With `COc1ccc(C(=O)O)cc1OC` [veratric acid] as the compound, how does the “anti-inflammatory effect (ELISA)” value [3] read?
**A.** does not show an anti-inflammatory effect
